According to ChEMBL document CHEMBL1129300, “Conformationally constrained analogues of diacylglycerol. 12. Ultrapotent protein kinase C ligands based on a chiral 4,4-disubstituted heptono-1,4-lactone template” (J Med Chem, 1996):

Target: Protein kinase C alpha type (Homo sapiens, UniProt P17252)
Experiment: Displacement of [3H-20]-PDBU from recombinant Protein kinase C alpha

## CCCCCCCC/C=C\CCCCCCCC/C=C1\C[C@@](CO)(COC(C)=O)OC1=O
  Ki: 13 nM

## CCCCCCCC/C=C\CCCCCCCC/C=C1\C[C@](/C=C/C(=O)OC)(CO)OC1=O
  Ki: 20 nM

## CCCCCCCC/C=C\CCCCCCCC/C=C1/C[C@@](CO)(COC(C)=O)OC1=O
  Ki: 12 nM

## CCCCCCCC/C=C\CCCCCCCC/C=C1/C[C@](/C=C/C(=O)OC)(CO)OC1=O
  Ki: 11 nM
